Source: patent US20240239802A1, “CRYSTAL FORM OF PYRROLOPYRIMIDINE COMPOUND AND PREPARATION METHOD FOR CRYSTAL FORM” (ZHEJIANG LONGCHARM BIO-TECH PHARMA. CO., LTD., priority 2021, published 2024)
Values belong to the compound of their own block, whether it stands above or below them.

Tests used:
[1] = target: BTK^C481S (Homo sapiens (Human), UniProt Q06187, C481S); assay: BTK enzyme activity test (33P-ATP filtration-binding); format: biochemical
Procedure: The specific experimental process of BTK enzyme activity test is as follows:
Buffer: 20 mM hydroxyethylpiperazine ethylsulfuric acid (Hepes) (pH 7.5), 10 mM magnesium chloride, 1 mM ethylene glycol bisaminoethyl ether tetraacetic acid (EGTA), 0.02% polyoxyethylene lauryl ether (Brij35), 0.02 mg/mL BSA, 0.1 mM sodium vanadate (Na3VO4), 2 mM dithiothreitol (DTT), 1% DMSO, 200 μM adenosine triphosphate (ATP).
1. Configuring the substrate in the newly prepared reaction buffer
2. Adding the required cofactors to the above substrate solution
3. Adding the kinase BTK^C481S to the above substrate solution and mixing well
4. Adding the compound dissolved in DMSO to the kinase reaction mixture through
Echo550 (Acoustic technology; nanoliter range), and incubating at room temperature for 20 minutes
5. Adding ^33P-ATP (with a specific activity of 10 μCi/μL) into the reaction mixture to initiate the reaction
6. Incubating at room temperature for 2 hours
7. Detection of radioactivity by filtration-binding method
8. Kinase activity data represent the percentage of remaining kinase activity in the test sample compared to the vehicle (dimethyl sulfoxide) reaction.

[2] = Pharmacokinetics (intravenous) in CD-1 mice; format: in vivo; details: for AUCu: AUCu = AUC0-inf × Unbound PPB (Mouse)
Procedure: The compound of formula (I) and the reference example were mixed with vehicle 0.10 mg/mL in 10% NMP/60% PEG400/30% H2O, vortexed and sonicated to prepare a 0.1 mg/mL clear solution. Select CD-1 male mice aged 7 to 10 weeks and administer the candidate compound solution intravenously at a dose of 0.21 mg/kg.
The whole blood was collected for a certain period of time to prepare plasma, and the drug concentration was analyzed by LC-MS/MS method. Pharmacokinetic parameters were calculated by Phoenix WinNonlin software (Pharsight, USA).

[3] = Pharmacokinetics (oral administration) in CD-1 mice; format: in vivo; details: for AUCu: AUCu = AUC0-inf × Unbound PPB (Mouse)
Procedure: The compound of formula (I) and the reference example were mixed with vehicle 10% NMP/60% PEG400/30% H2O, vortexed and sonicated to prepare a 0.6 mg/mL clear solution. Male CD-1 mice aged 7 to 10 weeks were selected, and the candidate compound solution was administered orally by gavage at a dose of 3.1 mg/kg. Whole blood was collected for a certain period of time to prepare plasma, and the drug concentration was analyzed by LC-MS/MS. Pharmacokinetic parameters were calculated with Phoenix WinNonlin software (Pharsight, USA).

[4] = Pharmacokinetics (intravenous) in SD rats; format: in vivo; details: for AUCu: 0.51 / 0.49 mg/kg, AUCu = AUC0-inf × Unbound PPB (Rat in vivo test PPB)
Procedure: The compound of formula (I) and the reference example were mixed with vehicle 0.10 mg/mL in 10% NMP/60% PEG400/30% H2O, vortexed and sonicated to prepare a 0.5 mg/mL clear solution. SD rats aged 7 to 10 weeks were selected and given the candidate compound solution intravenously. Whole blood was collected for a certain period of time to prepare plasma, and the drug concentration was analyzed by LC-MS/MS. Pharmacokinetic parameters were calculated with Phoenix WinNonlin software (Pharsight, USA).

[5] = Pharmacokinetics (oral) in SD rats; format: in vivo; details: for AUCu: 1.9 / 1.8 mg/kg, AUCu = AUC0-inf × Unbound PPB (Rat in vivo test PPB)
Procedure: The compound of formula (I) and the reference example were mixed with vehicle 10% NMP/60% PEG400/30% H2O, vortexed and sonicated to prepare a 2 mg/mL clear solution. SD rats aged 7 to 10 weeks were selected, and the candidate compound solution was administered orally.
Whole blood was collected for a certain period of time to prepare plasma, and the drug concentration was analyzed by LC-MS/MS method, and the pharmacokinetic parameters were calculated by Phoenix WinNonlin software (Pharsight, USA).

[6] = Unbound PPB (Mouse); format: in vitro ADME
[7] = Unbound PPB (Rat in vivo test PPB); format: in vitro ADME
[8] = Hygroscopicity research by dynamic vapor adsorption (DVS); format: physicochemical; details: 25° C. and 80% RH
Procedure: The vapor adsorption analysis (DVS) method of this application.
Instrument model: SMS DVS Advantage dynamic vapor adsorption instrument
Test conditions: Take a sample (10-15 mg) and place it in a DVS sample tray for testing.
The detailed DVS parameters are as follows:
Balance: dm/dt=0.01%/min (shortest: 10 min, longest: 180 min)
RH (%) test range: 0%-90%-0%
SMS DVS Advantage dynamic vapor adsorption instrument
Taking 10-15 mg of compound crystal form C of formula (I) and placing it in a DVS sample tray for testing.

[9] = Solid stability test (XRPD) under high temperature, high humidity and strong light; format: physicochemical
Procedure: According to the “Guiding Principles for Stability Testing of Raw Materials and Preparations” (Chinese Pharmacopoeia 2015 Edition Four General Rules 9001), the crystal form C of the compound of formula (I) was investigated for its stability under high temperature (60° C., open), high humidity (a. room temperature/relative humidity 92.5%, open; b. 40° C./75% relative humidity, open; c. 60° C./75% relative humidity, open) and the stability under strong light (5000 1×, airtight).
The crystal form C (15 mg) of the compound of formula (I) is weighed and placed on the bottom of the glass sample bottle to be spread into a thin layer. Samples placed under high-temperature and high-humidity conditions are sealed with aluminum foil, and small holes are formed on the aluminum foil to ensure that the samples can fully contact with the ambient air; and the sample placed under the strong illumination condition is sealed by a threaded bottle cap. Samples placed under different conditions were sampled and tested (XRPD) on the 5th day, 10th day, and 1 month. The test results were compared with the initial test results on day 0.

[10] = Competitive experiment of crystal form B and crystal form C (suspension in methyl tert-butyl ether); format: physicochemical
Procedure: Three groups of 30 mg crystal form B and 30 mg crystal form C compounds were respectively added to different 2.0 mL glass vials, and 0.6 mL methyl tert-butyl ether was added to obtain a suspension, and the suspension samples were placed in the magnetic heating stirrer was stirred at 20° C., 40° C. and 60° C. for 16 hours, the suspension was centrifuged to obtain a white solid, and the crystal form C of the compound of formula (I) was obtained by vacuum drying to constant weight.

[11] = system: human B-cell lymphoma OCI-LY10 cells; assay: OCI-LY10 SCID mouse subcutaneous xenograft tumor model; format: in vivo, SCID mice; details: for T/C / TGI: Day 20; for Tumor volume (Day 0) / Tumor volume (Day 20): Mean ± SEM
Procedure: OCI-LY10SCID mouse xenograft tumor model:
Experimental Method: Subcutaneous Xenograft Tumor Model in Mice with Human B-Cell Lymphoma
Tumor cells in the logarithmic growth phase were collected and resuspended in IMDM basal medium. Matrigel was added to adjust the concentration of cells to 4×10^7/Ml. Under sterile conditions, SCID mice were inoculate with cell suspension subcutaneously on the right back at a concentration of 4×10^6/0.1 mL/mouse. When the animal tumor reached about 131.55-227.87 mm^3, the tumor-bearing mice were divided into 5 groups according to the size of the tumor volume, with 8 […] in each group. On the day of the experiment, the animals were given corresponding drugs according to the groups.
During the experiment, the body weight and tumor size of the animals were measured 3 times a week, and the clinical symptoms of the animals were observed and recorded every day, and each administration was referred to the last weighed animal body weight.
The length (a) and width (b) of the tumor were measured with a digital vernier caliper, and tumor volume (Tumor volume, TV) was calculated according to the formula below: […]

[12] = mouse, plasma, 0.21 mg/kg, CD-1 male mice
[13] = mouse, plasma, 3.1 mg/kg, CD-1 male mice
[14] = rat, plasma, SD rats, 0.51 mg/kg (Reference Example) / 0.49 mg/kg (Compound of Formula (I))
[15] = rat, plasma, SD rats, 1.9 mg/kg (Reference Example) / 1.8 mg/kg (Compound of Formula (I))

BTK^C481S, sequence (Q06187 whole entry C481S): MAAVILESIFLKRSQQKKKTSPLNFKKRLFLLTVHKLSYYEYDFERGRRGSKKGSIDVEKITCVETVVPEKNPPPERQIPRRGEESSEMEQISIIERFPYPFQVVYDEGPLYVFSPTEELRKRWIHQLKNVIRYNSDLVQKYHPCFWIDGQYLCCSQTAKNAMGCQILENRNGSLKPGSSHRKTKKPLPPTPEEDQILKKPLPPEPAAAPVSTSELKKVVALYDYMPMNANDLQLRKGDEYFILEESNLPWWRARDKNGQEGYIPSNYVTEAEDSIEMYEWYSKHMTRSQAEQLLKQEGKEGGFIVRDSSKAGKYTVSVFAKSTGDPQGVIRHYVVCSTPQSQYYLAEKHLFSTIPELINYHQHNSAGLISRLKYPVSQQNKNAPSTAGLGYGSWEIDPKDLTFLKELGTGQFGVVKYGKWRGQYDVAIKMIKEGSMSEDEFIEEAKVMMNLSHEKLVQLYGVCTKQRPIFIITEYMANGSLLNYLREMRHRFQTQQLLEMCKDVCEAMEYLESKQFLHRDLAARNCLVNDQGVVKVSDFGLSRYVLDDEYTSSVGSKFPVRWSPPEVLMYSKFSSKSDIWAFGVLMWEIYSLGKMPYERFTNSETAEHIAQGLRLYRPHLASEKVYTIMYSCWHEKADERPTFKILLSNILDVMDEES

Inhibitory effect on BTK C481S mutation, conclusion [1]: strong inhibitory effect
AUCu ([2]; 0.21 mg/kg, CD-1 male mice): 0.0124 µM·h
AUCu ([3]; 3.1 mg/kg, CD-1 male mice): 0.133 µM·h
AUCu ([4]; SD rats): 0.0034 µM·h
AUCu ([5]; SD rats): 0.0078 µM·h
Unbound PPB ([6]; Table 10): 0.4%
Unbound PPB ([6]; Table 11): 0.4%
Unbound PPB ([7]; Table 12): 0.2%
Unbound PPB ([7]; Table 13): 0.2%
Compound: CO[C@@H]1C[C@@H](CO)OC[C@@H]1Nc1ncnc2[nH]cc(C(=O)c3ccc(Oc4ccccc4)cc3Cl)c12 [Compound of formula (I)]
Free drug concentration in mouse plasma, conclusion [2]: higher than that of the reference compound
Free drug concentration in mouse plasma, conclusion [3]: higher than that of the reference compound
Free drug concentration in rat plasma, conclusion [4]: higher than that of the reference compound
Free drug concentration in rat plasma, conclusion [5]: higher than that of the reference compound

Hygroscopicity classification [8]: slightly hygroscopic (2% > ΔW % ≥ 0.2%)
ΔW (hygroscopic weight gain) ([8]; DVS): 0.262%
Crystal Form (XRPD) ([9]; 0 day, initial): Form C
Crystal Form (XRPD) ([9]; High humidity (40° C./75% relative humidity, open), 1 month): Form C
Crystal Form (XRPD) ([9]; High humidity (60° C./75% relative humidity, open), 1 month): Form C
Crystal Form (XRPD) ([9]; High humidity (room temperature/relative humidity 92.5%, open), 5th day): Form C
Crystal Form (XRPD) ([9]; High humidity (room temperature/relative humidity 92.5%, open), 10th day): Form C
Crystal Form (XRPD) ([9]; High temperature (60° C., open), 5th day): Form C
Crystal Form (XRPD) ([9]; High temperature (60° C., open), 10th day): Form C
Crystal Form (XRPD) ([9]; Strong light (5000 lx, airtight), 10th day): Form C
Compound: CO[C@@H]1C[C@@H](CO)OC[C@@H]1Nc1ncnc2[nH]cc(C(=O)c3ccc(Oc4ccccc4)cc3Cl)c12 [Form C]
Solid stability, conclusion ([9]; high temperature, high humidity and strong light conditions): Conclusion: The crystal form C of the compound of formula (I) has good stability under high temperature, high humidity and strong light conditions.
Relative stability compared with Form B, conclusion [10]: Conclusion: Compared with Form B, Form C is more stable.
T/C ([11]; 15 mg/kg PO QD × 21): 65.50%
TGI ([11]; 15 mg/kg PO QD × 21): 49.61%
Tumor volume (Day 0) ([11]; 15 mg/kg PO QD × 21): 182.02 ± 9.76 mm^3
Tumor volume (Day 20) ([11]; 15 mg/kg PO QD × 21): 471.07 ± 16.55 mm^3
T/C ([11]; 30 mg/kg PO QD × 21): 45.05%
TGI ([11]; 30 mg/kg PO QD × 21): 71.75%
Tumor volume (Day 0) ([11]; 30 mg/kg PO QD × 21): 180.91 ± 9.67 mm^3
Tumor volume (Day 20) ([11]; 30 mg/kg PO QD × 21): 342.95 ± 20.06 mm^3
T/C ([11]; 45 mg/kg PO QD × 21): 29.25%
TGI ([11]; 45 mg/kg PO QD × 21): 92.82%
Tumor volume (Day 0) ([11]; 45 mg/kg PO QD × 21): 180.19 ± 10.07 mm^3
Tumor volume (Day 20) ([11]; 45 mg/kg PO QD × 21): 221.38 ± 37.11 mm^3
Tumor inhibitory effect versus reference compound, conclusion ([11]; at the same dose): obviously better than that of reference compound
Tumor growth inhibition, conclusion ([11]; inhibitory effect positively correlated with dose): significantly inhibit tumor growth

AUCu ([2]; 0.21 mg/kg, CD-1 male mice): 0.007 µM·h
AUC(0-inf) [2, 12]: 3.49 µM·h
C0 [2, 12]: 1040 nM
Vd [2, 12]: 0.7 L/kg
clearance [2, 12]: 2.01 mL/min/kg
half-life [2, 12]: 4.34 h
AUCu ([3]; 3.1 mg/kg, CD-1 male mice): 0.0882 µM·h
AUC(0-inf) [3, 13]: 44.1 µM·h
Cmax [3, 13]: 3840 nM
half-life [3, 13]: 3.75 h
AUCu ([4]; SD rats): 0.0019 µM·h
AUC(0-inf) [4, 14]: 1.92 µM·h
C0 [4, 14]: 800 nM
Vd [4, 14]: 1.57 L/kg
clearance [4, 14]: 9.08 mL/min/kg
half-life [4, 14]: 2.02 h
AUCu ([5]; SD rats): 0.005 µM·h
AUC(0-inf) [5, 15]: 5.03 µM·h
Cmax [5, 15]: 607 nM
half-life [5, 15]: 2.41 h
Unbound PPB ([6]; Table 10): 0.2%
Unbound PPB ([6]; Table 11): 0.2%
Unbound PPB ([7]; Table 12): 0.1%
Unbound PPB ([7]; Table 13): 0.1%
Compound: O=C(c1ccc(Oc2ccccc2)cc1Cl)c1c[nH]c2ncnc(N[C@@H]3CC[C@@H](CO)OC3)c12 [Reference Example]
T/C ([11]; 45 mg/kg PO QD × 21): 42.45%
TGI ([11]; 45 mg/kg PO QD × 21): 74.47%
Tumor volume (Day 0) ([11]; 45 mg/kg PO QD × 21): 183.86 ± 9.48 mm^3
Tumor volume (Day 20) ([11]; 45 mg/kg PO QD × 21): 330.27 ± 19.35 mm^3
